In US8263754B2, “Amphiphiles for protein solubilization and stabilization” (Wisconsin Alumni Research Foundation, priority 2008, dated 2012):

Tests used:
[1] = system: LHI-RC superassembly in Rhodobacter capsulatus membranes; conditions: for Level (S/P solubilization rank and detergent strength): detergent at 10x CMC, 30 minutes at 32° C.; for extraction of LHI-RC superassembly from R. capsulatus membranes: solubilized protein, optical spectroscopy
Source text: These complexes, normally embedded in the bacterial membrane, are highly pigmented and several outcomes from an assay are possible, including no degradation, partial degradation or complete degradation upon solubilization, or no solubilization. Thus, graded comparative evaluations could be obtained for a set of candidates such as the amphiphiles described herein.
In the engineered strain of R. capsulatus employed, the photosynthetic unit was comprised of a very labile LHI complex and a more resilient RC complex. An ideal amphiphile for this system will extract the intact LHI-RC superassembly from a bacterial membrane preparation and maintain the natural interactions among the components. Amphiphiles with a more disruptive effect will dissociate and denature LHI, leaving only intact RC, and even harsher amphiphiles will cause RC degradation. Each of these various outcomes can be assessed unambiguously via optical spectroscopy (FIG. 2 inset).
Measurements. The starting material for the screening protocols and stability measurements included specialized photosynthetic membranes from an engineered strain of Rhodobacter (R.) capsulatus, U43[pUHTM86Bgl]
To begin the solubilization and purification process, frozen aliquots of R. capsulatus membranes were thawed, homogenized, and equilibrated to 32° C. for 30 minutes. […] For subsequent experiments, the amphiphiles were evaluated at 10-fold CMC during the solubilization step.
The membrane samples were allowed to incubate with the amphiphile for 30 minutes at 32° C. The solubilized material was then separated from the membrane debris in an ultracentrifuge at 315,000×g at 4° C. for 30 minutes. […] After a UV-Vis-nearIR absorption spectrum was recorded, the resuspended pellet was discarded. […] The tubes were then incubated and inverted for 1 hour at 4° C.
Once binding was complete, samples were loaded onto resin-retaining spin columns (e.g., emptied His Spin Trap™ columns; GE Healthcare). The columns were then inserted into a 2 mL microcentrifuge tube to retain the filtered solution during centrifugation. […] Finally, protein was eluted into a fresh microcentrifuge tube with three 0.2 mL elution buffer aliquots (this buffer was identical to binding buffer with the addition of 1 M imidazole).
The R. capsulatus LHI-RC complexes extracted and purified by this procedure contain large numbers of cofactors that have absorptions at distinct wavelengths, and each component of the LHI-RC superassembly has a different inherent stability outside the lipid bilayer. The solubilization protocol outlined above therefore provides a multifaceted assessment of the efficacy of conventional detergents and novel amphiphiles. UV-Vis absorption spectroscopy data obtained at various stages of the protocol allow one to determine which protein components have degraded at these stages. […] The disruption potential was measured as the yield of superassembly extracted during solubilization (or, alternatively and more precisely, as the absence of superassembly in the pellet from the spin following solubilization).
The stabilizing propensity was determined from the spectra of the purified protein. An amphiphile was judged to be mild and stabilizing if it allowed the purification of fully intact LHI-RC superassembly (dominant absorption band at 875 nm). […] An amphiphile was judged to be of intermediate strength if it allowed for the purification of fully intact RC with damaged or missing LHI (dominant absorption at 800 nm with a shoulder at 875 nm; damaged LHI still bound to RC absorbs at 760 nm).
First, solubilization (illustrated in “STEP 1” of FIG. 12) denotes the ability of a surfactant to penetrate, integrate and disrupt a lipid bilayer.

[2] = cited from earlier work; for Buffer Range: pH range
[3] = Critical micelle concentration (CMC) by dye solubilization (Orange OT or DPH); assay type: physicochemical; conditions: for critical micelle concentration (CMC): aqueous solubilization of Orange OT; for CMC / CMC (%): determined by DPH (diphenylhexatriene) or Orange OT
Source text: Aqueous solubilization of Orange OT was used to determine critical micelle concentrations (CMC). […] Facile self-association of these amphiphiles under these conditions may be hindered by the hydrophilicity and/or steric bulk of the triglucoside and dimaltoside headgroups.
The Critical Micelle Concentrations (CMCs) of compounds of the invention can be determined by standard techniques known to those of skill in the art. For example, CMCs of the carbohydrate-based amphiphiles described herein can be determined by monitoring uptake of a dye (e.g., Orange OT or 1,6-diphenylhexatriene) with increasing detergent concentration, monitored by UV-visible or fluorescence spectroscopy.

CCCCCCCCCCCCCCCCC(=O)NC(CO[C@@H]1O[C@H](CO)[C@@H](O)[C@H](O)[C@H]1O)CO[C@@H]1O[C@H](CO)[C@@H](O)[C@H](O)[C@H]1O [C16-MPA2]
Level (S/P solubilization rank and detergent strength) [1]: insoluble

O=S(=O)(O)CCN1CCN(CCO)CC1 [HEPES, 4-2-hydroxyethyl-1-piperazineethanesulfonic acid]
Buffer Range [2]: 6.8-8.2

NC(CO)(CO)CO [Tris, tris(hydroxymethyl)methylamine]
Buffer Range [2]: 7.5-9.0

CCCCCCCCCCCCC(=O)NC(CO[C@@H]1O[C@H](CO)[C@@H](O[C@H]2O[C@H](CO)[C@@H](O)[C@H](O)[C@H]2O)[C@H](O)[C@H]1O)CO[C@@H]1O[C@H](CO)[C@@H](O[C@H]2O[C@H](CO)[C@@H](O)[C@H](O)[C@H]2O)[C@H](O)[C@H]1O [MPA5]
critical micelle concentration (CMC) [3]: 1.7 mM | CMC [3]: 1.7 mM | CMC (%) [3]: 0.16% | extraction of LHI-RC superassembly from R. capsulatus membranes [1]: did not extract any protein

O=S(=O)(O)CCCNC(CO)(CO)CO [TAPS, 3-{[tris(hydroxymethyl)methyl]amino}propanesulfonic acid]
pKa at 25° C. [2]: 8.43 | Buffer Range [2]: 7.7-9.1

CCCCCCCCCCCCC(=O)NC(CO[C@@H]1O[C@H](CO)[C@@H](O)[C@H](O)[C@H]1O)(CO[C@@H]1O[C@H](CO)[C@@H](O)[C@H](O)[C@H]1O)CO[C@@H]1O[C@H](CO)[C@@H](O)[C@H](O)[C@H]1O [MPA3]
critical micelle concentration (CMC) [3]: 4.4 mM | CMC [3]: 4.4 mM | CMC (%) [3]: 0.35% | extraction of LHI-RC superassembly from R. capsulatus membranes [1]: did not extract any protein

CCCCC(CCCC)(CC(=O)NC(COC1OC(CO)C(O)C(O)C1O)(COC1OC(CO)C(O)C(O)C1O)COC1OC(CO)C(O)C(O)C1O)c1ccccc1 (centres unmarked) [TPA3]
extraction of LHI-RC superassembly from R. capsulatus membranes [1]: no protein is extracted from the membrane

O=S(=O)(O)CCCN1CCOCC1 [MOPS, 3-(N-morpholino)propanesulfonic acid]
Buffer Range [2]: 6.5-7.9

OC[C@H]1O[C@@H](OCCC23CC4CC(CC(C4)C2)C3)[C@H](O)[C@@H](O)[C@@H]1O [TPA 43]
Level (S/P solubilization rank and detergent strength) [1]: insoluble

O=C(O)CNC(CO)(CO)CO [Tricine, N-tris(hydroxymethyl)methylglycine]
Buffer Range [2]: 7.4-8.8

CCCCCCCCCCCCC(=O)NC(CO[C@@H]1O[C@H](CO)[C@@H](O)[C@H](O)[C@H]1O)CO[C@@H]1O[C@H](CO)[C@@H](O)[C@H](O)[C@H]1O [C12-MPA2]
critical micelle concentration (CMC) [3]: 2.4 mM | CMC [3]: 2.4 mM | CMC (%) [3]: 0.15% | yield of membrane protein complexes purified by affinity chromatography ([1]; after extraction from R. capsulatus membranes): far greater yield | membrane protein complexes in the sample extracted ([1]; intracytoplasmic membranes of R. capsulatus): ~30% | extraction of LHI-RC superassembly from R. capsulatus membranes [1]: extracted a moderate amount of intact LHI-RC superassembly

OCC1O[C@H](OCC23CC4CC(CC(C4)C2)C3)[C@H](O)C(O)[C@H]1O (some centres unmarked) [TPA 42]
Level (S/P solubilization rank and detergent strength) [1]: insoluble

O=S(=O)(O)CCNC(CO)(CO)CO [TES, 2-{[tris(hydroxymethyl)methyl]amino}ethanesulfonic acid]
Buffer Range [2]: 6.8-8.2

O=S(=O)(O)CCN1CCN(CCS(=O)(=O)O)CC1 [PIPES, piperazine-N,N′-bis(2-ethanesulfonic acid)]
pKa at 25° C. [2]: 6.76 | Buffer Range [2]: 6.1-7.5

CCCCC(CCCC)(CC(=O)NCCO[C@@H]1O[C@H](CO)[C@@H](O[C@H]2O[C@H](CO)[C@@H](O)[C@H](O)[C@H]2O)[C@H](O)[C@H]1O)c1ccccc1 [TPA4]
critical micelle concentration (CMC) [3]: 4.0 mM | CMC [3]: 4 mM | CMC (%) [3]: 0.25% | extraction of LHI-RC superassembly from R. capsulatus membranes [1]: extracts a significant proportion of the membrane-embedded protein

CCCCC(CCCC)(CC(=O)NC(CO[C@@H]1O[C@H](CO)[C@@H](O[C@H]2O[C@H](CO)[C@@H](O)[C@H](O)[C@H]2O)[C@H](O)[C@H]1O)CO[C@@H]1O[C@H](CO)[C@@H](O[C@H]2O[C@H](CO)[C@@H](O)[C@H](O)[C@H]2O)[C@H](O)[C@H]1O)c1ccccc1 [TPA5]
extraction of LHI-RC superassembly from R. capsulatus membranes [1]: solubilized a small proportion of relatively intact LHI-RC superassembly
